Test results taken from patent US8349878B2 (Laboratorios del Dr. Esteve, S.A., priority 2006, dated 2013).
Counter-ions that a name gives are not always drawn. Like-named read-outs stand apart in the source and are kept apart here.

Target: T1, σ1-receptor (Cavia porcellus, UniProt Q60492)
T1 construct: guinea pig brains were homogenized; from tissue; host or cells: guinea pig brain membranes
Assay: Sigma-1 receptor binding assay, [3H](+)-pentazocine displacement in guinea pig brain membranes
Settings: for inhibition at 0.01 µM: read-out: Sigma-1 Inhibition percent (0.01 μM); for inhibition at 0.1 µM: read-out: Sigma-1 Inhibition percent (0.1 μM)
Method: The following protocol was followed:
In brief, guinea pig brains were homogenized in 10 vols. (w/v) of Tris-HCl 50 mM 0.32 M sucrose, pH 7.4, with a Kinematica Polytron PT 3000 at 15000 r.p.m. for 30 s. The homogenate was centrifuged at 1000 g for 10 min at 4° C. and the supernatants collected and centrifuged again at 48000 g for 15 min at 4° C. The pellet was resuspended in 10 volumes of Tris-HCl buffer (50 mM, pH 7.4), incubated at 37° C. for 30 min, and centrifuged at 48000 g for 20 min at 4° C. Following this, the pellet was resuspended in fresh Tris-HCl buffer (50 mM, pH 7.4) and stored on ice until use.
Each assay tube contained 10 μL of [^3H](+)-pentazocine (final concentration of 0.5 nM), 900 μL of the tissue suspension to a final assay volume of 1 mL and a final tissue concentration of approximately 30 mg tissue net weight/mL. Non-specific binding was defined by addition of a final concentration of 1 μM haloperidol. […] Filters were then washed with four times with 4 mL of cold Tris-HCl buffer (50 mM, pH 7.4). Following addition of scintillation cocktail, the samples were allowed to equilibrate overnight.

[1] = [3H](+)-pentazocine 0.5 nM, guinea pig brain membranes, read-out: Sigma-1 Ki (nm) Displ. 10^−7 M (10^−8 M)
[2] = compound at 0.01 μM, [3H](+)-pentazocine 0.5 nM, guinea pig brain membranes
[3] = compound at 0.1 μM, [3H](+)-pentazocine 0.5 nM, guinea pig brain membranes

T1 sequence (Q60492 whole entry): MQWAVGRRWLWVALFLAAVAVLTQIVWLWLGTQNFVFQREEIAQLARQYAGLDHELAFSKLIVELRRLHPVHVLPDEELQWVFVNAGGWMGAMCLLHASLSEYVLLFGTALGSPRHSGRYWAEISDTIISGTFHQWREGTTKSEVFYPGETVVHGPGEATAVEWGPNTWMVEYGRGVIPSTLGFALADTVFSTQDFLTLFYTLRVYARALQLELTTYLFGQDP

Structure (SMILES)	Ki [1] [nM]	inhibition at 0.01 µM [2] [%]	inhibition at 0.1 µM [3] [%]	Ki [nM]	inhibition at 0.01 µM [%]	inhibition at 0.1 µM [%]
Cc1nc(OCCN2CCCCC2)nn1-c1ccc(Cl)c(Cl)c1 [compound 22]	3.1 ± 1.6	54.3	94.8			
Cc1nc([S+]([O-])CCCCN2CCC(c3ccccc3)CC2)nn1-c1ccc(Cl)c(Cl)c1 (stereo not shown) [compound 18, 1-[4-(1-(3,4-Dichlorophenyl)-5-methyl-1H-1,2,4-triazol-3-ylsulfinyl)butyl]-4-phenylpiperidine]		-39.5	37.2			
Cc1nc(SCCCCN2CCC(c3ccccc3)CC2)nn1-c1ccc(Cl)c(Cl)c1 [compound 10, 1-[4-(1-(3,4-dichlorophenyl)-5-methyl-1H-1,2,4-triazol-3-yl-thio)butyl]-4-phenylpiperidine oxalate]		27.3	88.1			
Cc1nc(SCCN2CCOCC2)nn1-c1ccc(Cl)c(Cl)c1 [compound 1, oxalate]	1.1	102	107			
Cc1nc(SCCCN2CCCC2)nn1-c1ccc(Cl)c(Cl)c1 [compound 8, 1-[3-(1-(3,4-dichlorophenyl)-5-methyl-1H-1,2,4-triazol-3-yl-thio)propyl]-4-pyrrolidine oxalate]	2.1	57.4	82.5			
Cc1nc(OCCN2CCOCC2)nn1-c1ccc(Cl)c(Cl)c1 [compound 25, 4-[2-(1-(3,4-Dichlorophenyl)-5-methyl-1H-1,2,4-triazol-3-yloxy)ethyl]morpholine oxalate]		33.8	83.8			
CCN(CC)CCSc1nc(C)n(-c2ccc(Cl)c(Cl)c2)n1 [compound 5, 2-(1-(3,4-dichlorophenyl)-5-methyl-1H-1,2,4-triazole-3-yl-thio]-N,N-diethyl ethanamine oxalate]	1.1	104	109			
Cc1nc(SCCCCCN2CCCCC2)nn1-c1ccc(Cl)c(Cl)c1 [compound 12, 1-[5-(1-(3,4-dichlorophenyl)-5-methyl-1H-1,2,4-triazol-3-ylthio)pentyl]piperidine oxalate]		52.1	82.8			
Cc1nc(S(=O)(=O)CCCCN2CCOCC2)nn1-c1ccc(Cl)c(Cl)c1 [compound 21, 4-[4-(1-(3,4-Dichlorophenyl)-5-methyl-1H-1,2,4-triazol-3-yl-sulfonyl)-butyl]morpholine]		8.3	20.5			
Cc1nc([S+]([O-])CCN2CCCC2)nn1-c1ccc(Cl)c(Cl)c1 (stereo not shown) [compound 15, 1-[2-(1-(3,4-dichlorophenyl)-5-methyl-1H-1,2,4-triazol-3-yl-sulfinyl)ethyl]pyrrolidine]	7	47.2	88.9			
Cc1nc(SCCN2CCCC2)nn1-c1ccc(Cl)c(Cl)c1 [compound 3, oxalate]	1.4	103	106			
Cc1nc([S+]([O-])CCN(C(C)C)C(C)C)nn1-c1ccc(Cl)c(Cl)c1 (stereo not shown) [compound 17]				4	62.3	93.9
Cc1nc(OCCN2CCCC2)nn1-c1ccc(Cl)c(Cl)c1 [compound 24, 1-[2-(1-(3,4-Dichlorophenyl)-5-methyl-1H-1,2,4-triazol-3-yloxy)ethyl]pyrrolidine]		39.5	91.8			
Cc1nc(SCCCCCN2CCOCC2)nn1-c1ccc(Cl)c(Cl)c1 [compound 13, 4-[5-(1-(3,4-Dichlorophenyl)-5-methyl-1H-1,2,4-triazol-3-ylthio)pentyl]morpholine oxalate]		4.3	58.2			
CCN(CC)CCOc1nc(C)n(-c2ccccc2)n1 [compound 26, 2-(5-methyl-1-phenyl-1H-1,2,4-triazol-3-yloxy)-N,N-diethyl ethanamine]		7.3	15.2			
Cc1nc(SCCCN2CCC(c3ccccc3)CC2)nn1-c1ccc(Cl)c(Cl)c1 [compound 9, 1-[3-(1-(3,4-dichlorophenyl)-5-methyl-1H-1,2,4-triazol-3-ylthio)propyl]-4-phenylpiperidine oxalate]	9	74.2	89			
Cc1nc(SCCCN2CCOCC2)nn1-c1ccc(Cl)c(Cl)c1 [compound 7, 4-[3-(1-(3,4-Dichlorophenyl)-5-methyl-1H-1,2,4-triazol-3-ylthio)propyl]morpholine oxalate]	8.2	67.8	85.5			
Cc1nc([S+]([O-])CCN2CCOCC2)nn1-c1ccc(Cl)c(Cl)c1 (stereo not shown) [compound 16, 4-[2-(1-(3,4-dichlorophenyl)-5-methyl-1H-1,2,4-triazol-3-yl-sulfinyl)-ethyl]-morpholine]		28.6	42			
Cc1nc(SCCN2CCCCC2)nn1-c1ccc(Cl)c(Cl)c1 [compound 2, 1-[2-(3,4-dichlorophenyl)-5-methyl-1H-1.2.4-triazole-3-yl-thioethyl]piperidine oxalate]	0.8	105	109			
Cc1nc(SCCN2CCCCCC2)nn1-c1ccc(Cl)c(Cl)c1 [compound 6, 1-[2-(1-(3,4-dichlorophenyl)-5-methyl-1H-1,2,4-triazol-3-yl-thio)ethyl]azepane oxalate]		90.6	99.2			
Cc1nc(OCCN2CCOCC2)nn1-c1ccccc1 [compound 28, 4-[2-(5-methyl-1-phenyl-1H-1,2,4-triazol-3-yloxy)ethyl]morpholine]		-20.9	-3.4			
Cc1nc(OCCN2CCCCC2)nn1-c1ccccc1 [compound 29, 1-[2-(5-methyl-1-phenyl-1H-1,2,4-triazol-3-yloxy)ethyl]piperidine]		5.8	46.1			
CCN(CC)CCOc1nc(C)n(-c2ccc(Cl)c(Cl)c2)n1 [compound 23, 2-[1-(3,4-Dichlorophenyl)-5-methyl-1H-1,2,4-triazol-3-yloxy]-N,N-diethylethanamine]		32.2	85			
Cc1nc(S(=O)(=O)CCN2CCCC2)nn1-c1ccc(Cl)c(Cl)c1 [compound 19]	2.2	71.8	96.4			
Cc1nc(SCCCCCN2CCCC2)nn1-c1ccc(Cl)c(Cl)c1 [compound 14, 1-[5-(1-(3,4-dichlorophenyl)-5-methyl-1H-1,2,4-triazol-3-ylthio)pentyl]pyrrolidine oxalate]		6	52.5			
Cc1nc(SCCN(C(C)C)C(C)C)nn1-c1ccc(Cl)c(Cl)c1 [compound 4, oxalate]				1.1	105	109
Cc1nc(SCCCCN2CCOCC2)nn1-c1ccc(Cl)c(Cl)c1 [compound 11, 4-[4-(1-(3,4-dichlorophenyl)-5-methyl-1H-1,2,4-triazol-3-yl-thio)butyl]morpholine oxalate]		14.5	66.9			
Cc1nc(OCCN2CCCC2)nn1-c1ccccc1 [compound 27, 1-[2-(5-methyl-1-phenyl-1H-1,2,4-triazol-3-yloxy)ethyl]pyrrolidine]		8.1	30.4			
CCN(CC)CCS(=O)(=O)c1nc(C)n(-c2ccc(Cl)c(Cl)c2)n1 [compound 20, 2-[1-(3,4-Dichlorophenyl)-5-methyl-1H-1,2,4-triazol-3-ylsulfonyl]-N,N-diethylethanamine]	16.7	51.2	82.1			
Cc1nc(OCCCCN2CCOCC2)nn1-c1ccccc1 [compound 30, 4-[4-(5-methyl-1-phenyl-1H-1,2,4-triazol-3-yloxy)butyl]morpholine]		-15.1	18.3			
